Measured values taken from article PMC5999544 (Bioorganic & medicinal chemistry letters, 2017).
Entries after “also recorded” stand apart in the source; their conditions may differ.

Legend:
[1] = target: T1, ASK1 (Homo sapiens, UniProt Q99683); assay: ASK1 Alphascreen biochemical assay
T1 sequence (Q99683 1-1374): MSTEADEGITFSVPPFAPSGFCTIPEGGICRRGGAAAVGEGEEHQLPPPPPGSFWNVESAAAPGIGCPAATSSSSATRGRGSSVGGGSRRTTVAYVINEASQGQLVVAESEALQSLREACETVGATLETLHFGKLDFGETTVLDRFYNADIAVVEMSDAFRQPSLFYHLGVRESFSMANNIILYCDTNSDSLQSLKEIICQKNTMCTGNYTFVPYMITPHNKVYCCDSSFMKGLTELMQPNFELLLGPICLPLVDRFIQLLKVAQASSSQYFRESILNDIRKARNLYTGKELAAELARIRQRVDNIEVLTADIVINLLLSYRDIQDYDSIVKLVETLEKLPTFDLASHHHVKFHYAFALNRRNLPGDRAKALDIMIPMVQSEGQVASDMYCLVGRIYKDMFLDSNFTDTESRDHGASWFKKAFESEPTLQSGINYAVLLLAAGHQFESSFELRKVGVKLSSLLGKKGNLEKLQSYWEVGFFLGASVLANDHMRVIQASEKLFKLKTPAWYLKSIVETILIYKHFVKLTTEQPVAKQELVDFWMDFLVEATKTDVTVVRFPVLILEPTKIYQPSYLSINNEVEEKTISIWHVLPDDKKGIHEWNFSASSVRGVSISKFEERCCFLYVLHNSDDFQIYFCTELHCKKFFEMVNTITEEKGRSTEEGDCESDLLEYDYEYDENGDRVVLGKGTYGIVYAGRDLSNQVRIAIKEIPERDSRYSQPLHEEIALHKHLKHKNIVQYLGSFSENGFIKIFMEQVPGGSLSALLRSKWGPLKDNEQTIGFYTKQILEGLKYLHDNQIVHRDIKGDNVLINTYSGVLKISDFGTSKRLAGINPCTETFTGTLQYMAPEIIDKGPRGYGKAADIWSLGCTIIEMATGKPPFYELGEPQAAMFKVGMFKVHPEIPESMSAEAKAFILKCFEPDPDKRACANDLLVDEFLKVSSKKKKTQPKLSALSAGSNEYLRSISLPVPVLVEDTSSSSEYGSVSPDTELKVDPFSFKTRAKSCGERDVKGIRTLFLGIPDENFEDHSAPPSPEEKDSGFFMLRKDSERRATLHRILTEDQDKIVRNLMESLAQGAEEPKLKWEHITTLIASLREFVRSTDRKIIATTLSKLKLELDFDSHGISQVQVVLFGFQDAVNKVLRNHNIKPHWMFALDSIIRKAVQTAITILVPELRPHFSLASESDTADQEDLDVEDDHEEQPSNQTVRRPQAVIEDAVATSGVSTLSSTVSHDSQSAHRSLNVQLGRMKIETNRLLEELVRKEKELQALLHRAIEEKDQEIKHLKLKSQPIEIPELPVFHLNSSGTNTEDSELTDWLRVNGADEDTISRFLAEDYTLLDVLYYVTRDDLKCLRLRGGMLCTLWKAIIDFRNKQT

[2] = target: T1, ASK1; assay: Enzyme kinetic study, Lineweaver-Burk plot at six ATP concentrations; assay type: biochemical; details: with or without compound
[3] = system: INS-1e cell line; assay: TNFα-induced phosphorylation of endogenous MKK6 at Ser207, immunoblot; assay type: cell-based; details: rat INS-1e cells
[4] = target: CYP2C9 (Homo sapiens, UniProt P11712); assay: Cytochrome P450 inhibition assay 2C9; assay type: in vitro ADME
[5] = target: CYP3A4 (Homo sapiens, UniProt P08684); assay: Cytochrome P450 inhibition assay 3A4; assay type: in vitro ADME
Chain of CYP3A4 (P08684 whole entry): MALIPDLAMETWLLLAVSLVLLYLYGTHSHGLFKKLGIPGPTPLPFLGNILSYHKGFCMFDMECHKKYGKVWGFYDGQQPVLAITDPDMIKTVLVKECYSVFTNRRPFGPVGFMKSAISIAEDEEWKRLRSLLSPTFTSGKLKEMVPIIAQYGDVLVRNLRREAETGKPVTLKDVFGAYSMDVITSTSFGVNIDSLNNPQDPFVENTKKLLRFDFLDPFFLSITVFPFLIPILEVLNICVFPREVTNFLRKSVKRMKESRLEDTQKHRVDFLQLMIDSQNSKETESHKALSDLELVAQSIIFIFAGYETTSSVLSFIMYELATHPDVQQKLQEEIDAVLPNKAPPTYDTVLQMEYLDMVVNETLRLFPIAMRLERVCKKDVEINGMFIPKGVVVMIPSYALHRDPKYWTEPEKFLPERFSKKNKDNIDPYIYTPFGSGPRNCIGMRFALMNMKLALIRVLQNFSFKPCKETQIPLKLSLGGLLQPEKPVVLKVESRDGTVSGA

Chain of CYP2C9 (P11712 whole entry): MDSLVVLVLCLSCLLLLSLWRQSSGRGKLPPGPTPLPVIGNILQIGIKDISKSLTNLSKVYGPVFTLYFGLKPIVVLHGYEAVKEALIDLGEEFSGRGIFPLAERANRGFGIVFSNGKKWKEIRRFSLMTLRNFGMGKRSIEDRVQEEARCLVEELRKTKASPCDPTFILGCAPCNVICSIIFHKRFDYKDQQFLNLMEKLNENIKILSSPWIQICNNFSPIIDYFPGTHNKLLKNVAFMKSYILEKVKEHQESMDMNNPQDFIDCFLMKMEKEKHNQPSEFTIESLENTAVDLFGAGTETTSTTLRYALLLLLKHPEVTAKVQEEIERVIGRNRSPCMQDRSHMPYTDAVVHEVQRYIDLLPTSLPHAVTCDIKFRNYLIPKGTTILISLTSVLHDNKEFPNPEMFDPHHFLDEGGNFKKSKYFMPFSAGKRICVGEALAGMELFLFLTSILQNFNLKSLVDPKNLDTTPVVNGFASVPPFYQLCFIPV

Row | SMILES | ASK1 inhibitory activity (in words) [1] | inhibition at 10 µM [4] [%] | inhibition at 10 µM [5] [%] | other results
1 | CN(C)c1cccc(Nc2nccc(NCCOc3ccccc3)n2)c1 [Compound 3] | – | – | – | fold less active as an ASK1 inhibitor compared to 1 ([1]; 3 versus 1): approximately 250 fold
2 | CC(=O)Nc1cccc(Nc2ncc3ccccc3n2)c1 [Compound 12] | submicromolar inhibitory activities against ASK1 | < 20 | < 20 | fold improvement in potency in comparison to quinazoline 9 ([1]; 12 versus 9): > 10 fold; mode of ASK1 inhibition [2]: ATP competitive; TNFα-induced MKK6 ser207 phosphorylation [3]: protects against TNFα-induced MKK6^ser207 phosphorylation; also recorded: reduction of p-MKK6^ser207
3 | CC(=O)Nc1cccc(Nc2ncc3cc(-c4cn[nH]c4)ccc3n2)c1 [Compound 23] | submicromolar inhibitory activities against ASK1 | > 85 | > 85 | –
4 | CC(C)(C)C(=O)N(c1ccccc1)c1cccc(Nc2ncc3cc(-c4cn[nH]c4)ccc3n2)c1 [Compound 28] | did not show improvement in ASK1 activity | – | – | –
5 | Cn1cc(-c2ccc3nc(Nc4cccc(N(C(=O)C(C)(C)C)c5ccccc5)c4)ncc3c2)cn1 [Compound 29] | did not show improvement in ASK1 activity | – | – | –
